Laboratory results reported in ChEMBL document CHEMBL3044898, “Alkoxyphenyl methanesulfonamides: synthesis, anti-inflammatory effect, and docking studies” (Med Chem Res, 2012).

What was measured:
Rattus norvegicus [1] = test: Anti-inflammatory activity in Rattus norvegicus Wistar (rat) assessed as inhibition of carrageenan-induced paw edema at 25 mg/kg, po administered 30 min post carrageenan challenge measured at 5 hr relative to control; type: functional
Rattus norvegicus [2] = test: Ulcerogenic activity in Rattus norvegicus Wistar (rat) assessed as length of lesion at 5 mg/kg, po after 6 hr (reference value: 0 mm); type: toxicity, organism-based; design: dose 5 mg/kg, route oral; conditions: in vivo
Rattus norvegicus [3] = test: Anti-inflammatory activity in Rattus norvegicus Wistar (rat) assessed as inhibition of carrageenan-induced paw edema at 75 mg/kg, po administered 30 min post carrageenan challenge measured at 5 hr relative to control; type: functional
Rattus norvegicus [4] = test: Ulcerogenic activity in Rattus norvegicus Wistar (rat) assessed as length of lesion at 75 mg/kg, po after 6 hr (reference value: 0 mm); type: toxicity, organism-based; design: dose 75 mg/kg, route oral; conditions: in vivo
Rattus norvegicus [5] = test: Anti-inflammatory activity in Rattus norvegicus Wistar (rat) assessed as inhibition of carrageenan-induced paw edema at 5 mg/kg, po administered 30 min post carrageenan challenge measured at 5 hr relative to control; type: functional
Rattus norvegicus [6] = test: Ulcerogenic activity in Rattus norvegicus Wistar (rat) assessed as length of lesion at 25 mg/kg, po after 6 hr (reference value: 0 mm); type: toxicity, organism-based; design: dose 25 mg/kg, route oral; conditions: in vivo
Rattus norvegicus [7] = test: Anti-inflammatory activity in po dosed Rattus norvegicus Wistar (rat) assessed as inhibition of carrageenan-induced paw edema administered 30 min post carrageenan challenge measured at 5 hr; type: functional
Rattus norvegicus [8] = test: Ulcerogenic activity in Rattus norvegicus Wistar (rat) assessed as length of lesion at 100 mg/kg, po after 6 hr (reference value: 0 mm); type: toxicity, organism-based; design: dose 100 mg/kg, route oral; conditions: in vivo
Rattus norvegicus [9] = test: Anti-inflammatory activity in Rattus norvegicus Wistar (rat) assessed as inhibition of carrageenan-induced paw edema at 100 mg/kg, po administered 30 min post carrageenan challenge measured at 5 hr relative to control; type: functional
Rattus norvegicus [10] = test: Ulcerogenic activity in Rattus norvegicus Wistar (rat) assessed as length of lesion at 30 mg/kg, po after 6 hr (reference value: 0 mm); type: toxicity, organism-based; design: dose 30 mg/kg, route oral; conditions: in vivo
Rattus norvegicus [11] = test: Anti-inflammatory activity in Rattus norvegicus Wistar (rat) assessed as inhibition of carrageenan-induced paw edema at 30 mg/kg, po administered 30 min post carrageenan challenge measured at 5 hr relative to control; type: functional
Rattus norvegicus [12] = test: Ulcerogenic activity in Rattus norvegicus Wistar (rat) assessed as length of lesion at 10 mg/kg, po after 6 hr (reference value: 0 mm); type: toxicity, organism-based; design: dose 10 mg/kg, route oral; conditions: in vivo

Structure (SMILES) | inhibition in vivo at 25 mg/kg (Rattus norvegicus [1]) [%] | Activity (Rattus norvegicus [2]) [mm] | inhibition in vivo at 75 mg/kg (Rattus norvegicus [3]) [%] | Activity (Rattus norvegicus [4]) [mm] | inhibition in vivo at 5 mg/kg (Rattus norvegicus [5]) [%] | Activity (Rattus norvegicus [6]) [mm] | ED50 (Rattus norvegicus [7]) [mg/kg] | Activity (Rattus norvegicus [8]) [mm] | inhibition in vivo at 100 mg/kg (Rattus norvegicus [9]) [%] | Activity (Rattus norvegicus [10]) [mm] | inhibition in vivo at 30 mg/kg (Rattus norvegicus [11]) [%] | Activity (Rattus norvegicus [12]) [mm]
CCCCCCCCOc1cc(C(C)=O)ccc1NS(C)(=O)=O | 62.5 | 0 | 69.9 | 2 | 51.5 | 1 | 2.36 | – | – | – | – | –
CCOc1cc(C(C)=O)ccc1NS(C)(=O)=O | 54.6 | 0 | 66.2 | 1 | 44 | 0 | 1.8 | – | – | – | – | –
CC(=O)c1ccc(NS(C)(=O)=O)c(O)c1 | – | – | – | – | – | – | – | 1 | 15.9 | – | – | –
CS(=O)(=O)c1ccc(C2=C(c3ccccc3)C(=O)OC2)cc1 [ROFECOXIB] | – | – | – | – | – | – | 2.61 | – | – | 2 | 82.8 | –
CCCOc1cc(C(C)=O)ccc1NS(C)(=O)=O | 62.1 | 0 | 67.2 | 1 | 56.6 | 1 | 2.25 | – | – | – | – | –
COc1ccc2c(c1)c(CC(=O)O)c(C)n2C(=O)c1ccc(Cl)cc1 [INDOMETHACIN] | – | – | – | – | – | – | 2.2 | – | – | – | – | 19.4
CC(=O)c1ccc(NS(C)(=O)=O)c(OC2CCCC2)c1 | 57.4 | 0 | 69.2 | 1 | 58.7 | 0 | 2.31 | – | – | – | – | –
